The test system of one assay is ALL cells. The assay is described as follows: MTT assay, summary. To be noted: Homo sapiens, read-out: IC50, range. The format is cell-based. An excerpt:
(§1) CCRF-CEM acute lymphoblastic leukemia (ALL) and K562 chronic myeloid leukemia (CML) cells and their MDR P-glycoprotein overexpressing variants, CEM/ADR5000 and Lucena 1, respectively, were a generous gift from Dr. T. Efferth (Institute of Pharmacy and Biochemistry, Johannes Gutenberg University, Mainz, Germany) and Dr. V. Rumjanek (Instituto de Bioquímica Médica Leopoldo de Meis, Universidade Federal do Rio de Janeiro, Rio de Janeiro, Brazil), respectively. The HEK293T non-tumor derived cell line and human isolated mononuclear cells (PBMC) were also tested. […]
(§2) To investigate the cytotoxic potential of the isolated compounds, the MTT colorimetric assay was performed. […] The compounds were evaluated at a final maximum concentration of 100 μM. […] Absorbance was measured with an iMark micro-plate reader (Bio-Rad, USA) at 595 nm. […] The percentage of cytotoxic activity of the assayed compounds was determined by the following formula: cytotoxicity (%) = [1 − (optical density of treated cells − optical density DMSO)/(optical density of ethanol control cells − optical density DMSO)] × 100.
In general terms: Tetrazolium dyes change colour on reduction, which living cells bring about.

The next assay deals with CML cells. In words: MTT assay, summary. The format is cell-based. To be noted: Homo sapiens, read-out: IC50, range.
Source text: as §1, §2

The test system of assay [1] is Enterococcus faecalis (ATCC 29212). The assay is described as follows: Agar dilution MIC / MBC. It counts as cell-based. To be noted: ATCC29212, E. faecalis. Here is the method:
(§3) This isolate was identified by conventional biochemical assays and by the commercial system API20E (bioMérieux SA, Mercy L'Etoile, France). Antimicrobial resistances were determined by disk diffusion susceptibility testing (Kirby-Bauer Method) according to CLSI [15]. Bacterial suspensions were prepared on sterile saline from each organism grown overnight. Turbidity was spectrophotometrically adjusted to the McFarland 0.5 standard. Dilutions were carried out with sterile saline to give an adjusted concentration of 1.5 × 10^7 colony-forming units/mL.
(§4) Three independent experiments were carried out. […] For reading, visual observations were carried out.

Assay [2] relates to Pseudomonas aeruginosa (ATCC 27853). In words: Agar dilution MIC / MBC. It counts as cell-based. The conditions noted are these: ATCC27853, P. aeruginosa. Here is the method:
as §3, §4

In assay [3] the test system is Staphylococcus aureus subsp. aureus (ATCC 6538). The assay is described as follows: Agar dilution MIC / MBC. The format is cell-based. To be noted: S. aureus; for MBC: value in parentheses. Here is the method: as §3, §4
In general terms: In agar dilution the substance is mixed into plates at graded concentrations.

In assay [4] the test system is tetracycline, erythromycin, and polymyxin-resistant Proteus mirabilis (Pr2921). The assay is described as follows: Agar dilution MIC / MBC. To be noted: P. mirabilis. It counts as cell-based. Here is the method:
as §3, §4

The test system of assay [5] is Escherichia coli (ATCC 25922). The assay is described as follows: Agar dilution MIC / MBC. The format is cell-based. The conditions noted are these: ATCC25922, E. coli. Here is the method:
as §3, §4

In assay [6] the test system is HEK293T non-tumor derived cell line. The assay is described as follows: MTT cell proliferation assay. It counts as cell-based. To be noted: Homo sapiens, HEK-293T.
Source text: as §1, §2

For assay [7], the system named is CCRF-CEM cells. The assay is described as follows: Viable cell count by trypan blue dye exclusion. It counts as cell-based, human. Here is the method:
(§5) To confirm the effect of compound 1 on the proliferation of CCRF-CEM and K562, cell suspensions (5 × 10^4 cells/well) were treated in culture medium with different concentrations of 1 (final volume of 200 μL) and incubated in triplicate for 24, 48, and 72 h. Two independent experiments were performed. The number of viable cells at the different time points was counted by the trypan blue dye exclusion method using a hemocytometer (Neubaur, USA).

In assay [8] the test system is K562 cells. The assay is described as follows: Viable cell count by trypan blue dye exclusion. The format is cell-based, human. Here is the method:
as §5

The test system of assay [9] is peripheral blood mononuclear cells (PBMC). The assay is described as follows: MTT cell proliferation assay. The format is cell-based. The conditions noted are these: Homo sapiens.
Source text: as §1, §2

In assay [10] the test system is sensitive and resistant leukemic cells. In words: MTT assay, summary over leukemic cell lines. It counts as cell-based. To be noted: Homo sapiens, read-out: IC50 values, range.
Source text: as §1, §2

Assay [11] deals with CCRF-CEM cells. The assay is described as follows: Apoptosis by Annexin V/PI double staining. It counts as cell-based, human. The conditions noted are these: 2 × IC50, 72 h. Here is the method:
(§6) After incubation, cells were harvested, washed, and suspended in cold PBS. The proportion of cells undergoing apoptosis was examined by double staining using allophycocyanin (APC) conjugated Annexin-V (BD Pharmingen, USA) and propidium iodide (Sigma-Aldrich CO, USA). Over the following hour, the fluorescence of ten thousand cells, including that of control groups, was assayed and populations were analyzed with FlowJo software version 7.6.2 (Tree Star, Inc., OR, USA). Percentages of Annexin-V positive cells (PI− or PI+) indicate early or late apoptosis, respectively.

Assay [12] concerns K562 cells. In words: Apoptosis by Annexin V/PI double staining. The format is cell-based, human. The conditions noted are these: 2 × IC50, 72 h. Here is the method: as §6

Each structure is given as a SMILES string. In brackets after ≈: the same amount, converted by molar mass. Where two headings read alike, the source gives them in different places.

Consider one compound from paper PMC4706877, “Antibacterial and Cytotoxic Activity of Compounds Isolated from Flourensia oolepis” (Evidence-based Complementary and Alternative Medicine : eCAM, 2015).

In the case of `O=C(/C=C/c1ccccc1)c1ccc(O)cc1O` [Compound 1, 2′,4′-dihydroxychalcone], the IC50 – broadly, the point on the concentration scale where inhibition reaches its midpoint – with ALL cells is 6.6 to 9.9 µM; in the assay with CML cells, 27.5 to 30 µM; in [6] it was 67 µM; in assay [9], 82.8 µM; in [10], 6.6 to 30 µM. Moreover, the MIC – broadly, the smallest concentration in the dilution series that meets the test's criterion for growth inhibition – amounted to 62 µg/mL (≈ 258 µM) in assay [1] (agar dilution, 24 h); 250 µg/mL (≈ 1040 µM) in assay [2] (agar dilution, 24 h); 31 µg/mL (≈ 129 µM) in [3] (Staphylococcus aureus, ATCC6538, agar dilution, 24 h); 62 µg/mL (≈ 258 µM) in [4] (agar dilution, 24 h); 250 µg/mL (≈ 1040 µM) in assay [5] (agar dilution, 24 h). The MBC in [1] (value in parentheses) was 125 µg/mL (≈ 520 µM); in assay [2] (value in parentheses), more than 500 µg/mL; in [3], 31 (31) μg/mL; in assay [3] (Staphylococcus aureus, ATCC6538, read-out: MBC) it was 31 µg/mL (≈ 129 µM); in assay [4] (value in parentheses) it was 125 µg/mL (≈ 520 µM); in assay [5] (value in parentheses), 500 µg/mL (≈ 2080 µM). In addition, the “time at which a significant difference (p < 0.05) in number of viable cells vs ethanol control was observed” value is given as 72 h in the assay with CCRF-CEM cells [7] (2.6 μM) and 48 h in the assay on CCRF-CEM cells [7] (5.2 μM). For the same compound, the “time at which a significant decrease (p < 0.05) in number of viable cells vs ethanol control was observed” value was 48 h with K562 cells [8] (20.8 μM) and 24 h in the assay on K562 cells [8] (41.6 μM). The entries for the “early and late apoptotic cells” value with CCRF-CEM cells [11] and in the assay with K562 cells [12] were 26.7% and 68.7%, respectively.
